According to US20230399312A1, “SUBSTITUTED PYRIMIDINES AND METHODS OF USE” (THERAVANCE BIOPHARMA R&D IP, LLC, priority 2020, published 2023):

Columns and labels:
[1] = test system: TGF-β-stimulated SMAD3 phosphorylation in BEAS-2B cells; assay: Cellular ALK5 potency assay, inhibition of TGF-β stimulated pSMAD3 formation in BEAS-2B cells; format: cell-based; conditions: Homo sapiens, pSMAD3, TGF-β 10 ng/mL, read-out: BEAS2B pIC50 (converted)
Procedure, shortened: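 BEAS-2B cells, HBSS/25 mM HEPES/1% BSA buffer; cpd 1 h, 37 °C; TGF-β 10 ng/mL final, 30 min; lysis, AlphaLISA pSMAD3 read next day. pIC50 vs stimulated no-compound baseline.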

[2] = biological target: T1, recombinant human ALK5 (TGF-βR1) protein (Homo sapiens, UniProt P36897); assay: Biochemical ALK5 (TGF-βR1) assay to measure pKi (LANCE Ultra ULight kinase assay); conditions: apparent pKi, converted from pIC50 by Cheng-Prusoff
T1 construct: purchased Life Technologies PR9075A
T1 sequence (P36897 34-503): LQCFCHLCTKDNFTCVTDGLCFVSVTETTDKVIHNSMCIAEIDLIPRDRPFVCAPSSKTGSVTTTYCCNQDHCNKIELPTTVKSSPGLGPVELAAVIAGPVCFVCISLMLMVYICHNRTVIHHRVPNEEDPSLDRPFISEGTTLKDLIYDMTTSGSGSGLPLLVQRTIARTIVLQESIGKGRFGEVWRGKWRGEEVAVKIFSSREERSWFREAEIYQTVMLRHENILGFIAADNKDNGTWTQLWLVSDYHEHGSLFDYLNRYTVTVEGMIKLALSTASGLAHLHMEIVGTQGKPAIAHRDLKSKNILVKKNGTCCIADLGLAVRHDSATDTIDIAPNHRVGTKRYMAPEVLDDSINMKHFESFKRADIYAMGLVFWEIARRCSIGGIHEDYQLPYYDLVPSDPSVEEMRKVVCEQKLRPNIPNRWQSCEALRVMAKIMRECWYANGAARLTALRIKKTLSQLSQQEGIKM
Procedure, shortened: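 Enzyme was preincubated with compound for 60 min at room temperature, then ATP (added from a 125 μM 5× stock with 2 mM DTT) started a 60 min reaction at 37 °C. EDTA plus Eu-anti-phospho-Topo2α (Thr1342) antibody stopped it; TR-FRET pIC50 values were converted to pKi by Cheng-Prusoff.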

Row | Structure (SMILES) | Ki [2] | IC50 [1]
1 | Cc1cccc(-c2nccc(Nc3ccnc(Nc4ccc(N5CCNCC5CC(=O)OCC5CNC5)cc4)n3)n2)n1 (stereo not shown) [Compound 402, azetidin-3-ylmethyl 2-[1-[4-[[4-[[2-(6-methyl-2-pyridyl)pyrimidin-4-yl]amino]pyrimidin-2-yl]amino]phenyl]piperazin-2-yl]acetate] | 0.398 to 3.16 nM | 200 to 1260 nM
2 | CCC(C)OC(=O)C1CN(c2ccc(Nc3nccc(Nc4ccnc(-c5cccc(C)n5)n4)n3)cc2)CCN1 (racemic) [Compound 192, [rac-(1R)-1-methylpropyl] 4-[4-[[4-[[2-(6-methyl-2-pyridyl)pyrimidin-4-yl]amino]pyrimidin-2-yl]amino]phenyl]piperazine-2-carboxylate] | 0.0398 to 0.316 nM | 25.1 to 158 nM
3 | Cc1cccc(-c2nccc(Nc3ccnc(Nc4ccc(NC[C@@H]5CCCN5)cc4)n3)n2)n1 [Compound 342, N4-[2-(6-methyl-2-pyridyl)pyrimidin-4-yl]-N2-[4-[[(2S)-pyrrolidin-2-yl]methylamino]phenyl] pyrimidine-2,4-diamine] | 0.0398 to 0.316 nM | 25.1 to 158 nM
4 | Cc1cccc(-c2nccc(Nc3ccnc(Nc4ccc(CCO)cc4)n3)n2)n1 [Compound 146, 2-[4-[[4-[[2-(6-methyl-2-pyridyl)pyrimidin-4-yl]amino]pyrimidin-2-yl]amino]phenyl]ethanol] | 0.398 to 3.16 nM | 25.1 to 158 nM
5 | Cc1cccc(-c2nccc(Nc3ccnc(Nc4ccc(Cl)c(CN5C[C@@H](C)N[C@@H](C)C5)c4)n3)n2)n1 [Compound 381, N2-[4-chloro-3-[[rac-(3R,5S)-3,5-dimethylpiperazin-1-yl]methyl]phenyl]-N4-[2-(6-methyl-2-pyridyl)pyrimidin-4-yl]pyrimidine-2,4-diamine] | 0.0398 to 0.316 nM | 25.1 to 158 nM
6 | Cc1cccc(-c2nccc(Nc3ccnc(Nc4ccc(CN5CC(OCCO)C5)cc4)n3)n2)n1 [Compound 392, 2-[1-[[4-[[4-[[2-(6-methyl-2-pyridyl)pyrimidin-4-yl]amino]pyrimidin-2-yl]amino]phenyl]methyl]azetidin-3-yl]oxyethanol] | 0.0398 to 0.316 nM | 25.1 to 158 nM
7 | Cc1cccc(-c2nccc(Nc3ccnc(Nc4ccc(N5CCN[C@H](CO)C5)cc4)n3)n2)n1 [Compound 46, [(2S)-4-[4-[[4-[[2-(6-methyl-2-pyridyl)pyrimidin-4-yl]amino]pyrimidin-2-yl]amino]phenyl]piperazin-2-yl]methanol] | ≤ 0.0316 nM | 25.1 to 158 nM
8 | CCOC(=O)CC1CNCCN1c1ccc(Nc2nccc(Nc3ccnc(-c4cccc(C)n4)n3)n2)cc1 (stereo not shown) [Compound 241, ethyl 2-[1-[4-[[4-[[2-(6-methyl-2-pyridyl)pyrimidin-4-yl]amino]pyrimidin-2-yl]amino]phenyl]piperazin-2-yl]acetate] | 0.0398 to 0.316 nM | 25.1 to 158 nM
9 | Cc1cccc(-c2nccc(Nc3ccnc(Nc4ccc(CN5CCC(O)CC5)cc4)n3)n2)n1 [Compound 405, 1-[[4-[[4-[[2-(6-methyl-2-pyridyl)pyrimidin-4-yl]amino]pyrimidin-2-yl]amino]phenyl]methyl] piperidin-4-ol] | ≤ 0.0316 nM | 25.1 to 158 nM
10 | Cc1cccc(-c2nccc(Nc3ccnc(Nc4cccc(NC(=O)NC5CNC5)c4)n3)n2)n1 [Compound 125, 1-(azetidin-3-yl)-3-[3-[[4-[[2-(6-methyl-2-pyridyl)pyrimidin-4-yl]amino]pyrimidin-2-yl]amino]phenyl]urea] | 0.0398 to 0.316 nM | 25.1 to 158 nM
11 | COc1cc(Nc2nccc(Nc3ccnc(-c4cccc(C)n4)n3)n2)ccc1NS(C)(=O)=O [Compound 18, N-[2-methoxy-4-[[4-[[2-(6-methyl-2-pyridyl)pyrimidin-4-yl]amino]pyrimidin-2-yl]amino]phenyl] methanesulfonamide] | 0.398 to 3.16 nM | 25.1 to 158 nM
12 | Cc1ccc(O)cc1-c1nccc(Nc2ccnc(Nc3ccc(N4CCNCC4)cc3)n2)n1 [Compound 179, 4-methyl-3-[4-[[2-(4-piperazin-1-ylanilino)pyrimidin-4-yl]amino]pyrimidin-2-yl]phenol] | 0.398 to 3.16 nM | 25.1 to 158 nM
13 | CCOC(=O)Cc1cc(Nc2nccc(Nc3ccnc(-c4cccc(C)n4)n3)n2)ccc1N1CCNCC1 [Compound 156, ethyl 2-[5-[[4-[[2-(6-methyl-2-pyridyl)pyrimidin-4-yl]amino]pyrimidin-2-yl]amino]-2-piperazin-1-yl-phenyl]acetate] | 0.0398 to 0.316 nM | 25.1 to 158 nM

Continued, in another order:

Row | Ki [2] | Structure (SMILES) | IC50 [1]
14 | 0.0398 to 0.316 nM | Cc1cccc(-c2nccc(Nc3ccnc(Nc4nc(CN5CCC[C@@H](C(=O)O[C@@H]6CCN(C)C6)C5)cs4)n3)n2)n1 [Compound 460, [(3R)-1-methylpyrrolidin-3-yl] (3R)-1-[[2-[[4-[[2-(6-methyl-2-pyridyl)pyrimidin-4-yl]amino]pyrimidin-2-yl]amino]thiazol-4-yl]methyl]piperidine-3-carboxylate] | 25.1 to 158 nM
15 | 0.0398 to 0.316 nM | Cc1cccc(-c2nc(Nc3ccnc(Nc4cc(C(=O)O)cs4)n3)c3cccn3n2)n1 [Compound 1025, 5-[[4-[[2-(6-methyl-2-pyridyl)pyrrolo[2,1-f][1,2,4]triazin-4-yl]amino]pyrimidin-2-yl]amino]thiophene-3-carboxylic acid] | 25.1 to 158 nM
16 | 0.398 to 3.16 nM | Cc1cccc(-c2nccc(Nc3ccnc(Nc4nc(C(=O)OC[C@H]5CCCCN5)cs4)n3)n2)n1 [Compound 586, [(2R)-2-piperidyl]methyl 2-[[4-[[2-(6-methyl-2-pyridyl)pyrimidin-4-yl]amino]pyrimidin-2-yl]amino]thiazole-4-carboxylate] | 25.1 to 158 nM
17 | 0.398 to 3.16 nM | Cc1cccc(-c2nccc(Nc3ccnc(Nc4ccc5c(c4)CCCN5)n3)n2)n1 [Compound 492, N4-[2-(6-methyl-2-pyridyl)pyrimidin-4-yl]-N2-(1,2,3,4-tetrahydroquinolin-6-yl)pyrimidine-2,4-diamine] | 25.1 to 158 nM
18 | 0.0398 to 0.316 nM | Cc1cccc(-c2nccc(Nc3ccnc(Nc4ccc(CN5CCCC(C(=O)O)C5)cc4)n3)n2)n1 (stereo not shown) [Compound 444, 1-[[4-[[4-[[2-(6-methyl-2-pyridyl)pyrimidin-4-yl]amino]pyrimidin-2-yl]amino]phenyl]methyl] piperidine-3-carboxylic acid] | 25.1 to 158 nM
19 | 0.0398 to 0.316 nM | Cc1cccc(-c2nc(Nc3ccnc(Nc4ccc(NC(=O)C5CCNCC5)cc4)n3)c3cccn3n2)n1 [Compound 1028, N-[4-[[4-[[2-(6-methyl-2-pyridyl)pyrrolo[2,1-f][1,2,4]triazin-4-yl]amino]pyrimidin-2-yl]amino]phenyl]piperidine-4-carboxamide] | 25.1 to 158 nM
20 | 0.398 to 3.16 nM | Cc1cccc(-c2nccc(Nc3ccnc(Nc4nc(C(=O)OC[C@H]5CCCN5)cs4)n3)n2)n1 [Compound 593, [(2R)-pyrrolidin-2-yl]methyl 2-[[4-[[2-(6-methyl-2-pyridyl)pyrimidin-4-yl]amino]pyrimidin-2-yl]amino]thiazole-4-carboxylate] | 25.1 to 158 nM
21 | 0.0398 to 0.316 nM | Cc1cccc(-c2nccc(Nc3ccnc(Nc4ccc(N5CCNCC5)c(C#N)c4)n3)n2)n1 [Compound 447, 5-[[4-[[2-(6-methyl-2-pyridyl)pyrimidin-4-yl]amino]pyrimidin-2-yl]amino]-2-piperazin-1-yl-benzonitrile] | 25.1 to 158 nM
22 | 0.0398 to 0.316 nM | Cc1cccc(-c2nccc(Nc3ccnc(Nc4ccc(CN5CCNCC5(C)C)cc4)n3)n2)n1 [Compound 480, N2-[4-[(2,2-dimethylpiperazin-1-yl)methyl]phenyl]-N4-[2-(6-methyl-2-pyridyl)pyrimidin-4-yl]pyrimidine-2,4-diamine] | 25.1 to 158 nM
23 | 0.0398 to 0.316 nM | Cc1cccc(-c2nccc(Nc3ccnc(Nc4csc(C(=O)OCCN5CCC[C@@H](N)C5)c4)n3)n2)n1 [Compound 598, 2-[(3R)-3-amino-1-piperidyl]ethyl 4-[[4-[[2-(6-methyl-2-pyridyl)pyrimidin-4-yl]amino]pyrimidin-2-yl]amino]thiophene-2-carboxylate] | 25.1 to 158 nM
24 | 0.0398 to 0.316 nM | Cc1cccc(-c2nc(Nc3ccnc(Nc4ccc(C(=O)NC5CCNC5)cc4)n3)c3cccn3n2)n1 (stereo not shown) [Compound 1036, 4-[[4-[[2-(6-methyl-2-pyridyl)pyrrolo[2,1-f][1,2,4]triazin-4-yl]amino]pyrimidin-2-yl]amino]-N-pyrrolidin-3-yl-benzamide] | 25.1 to 158 nM
25 | 0.0398 to 0.316 nM | Cc1cccc(-c2nc(Nc3ccnc(Nc4ccc(C(=O)OCC5CNC5)cc4)n3)c3cccn3n2)n1 [Compound 1039, azetidin-3-ylmethyl 4-[[4-[[2-(6-methyl-2-pyridyl)pyrrolo[2,1-f][1,2,4]triazin-4-yl]amino]pyrimidin-2-yl]amino]benzoate] | 25.1 to 158 nM
26 | 0.398 to 3.16 nM | Cc1cccc(-c2nccc(Nc3ccnc(Nc4cccc(C(=O)N5CCNCC5)c4)n3)n2)n1 [Compound 505, [3-[[4-[[2-(6-methyl-2-pyridyl)pyrimidin-4-yl]amino]pyrimidin-2-yl]amino]phenyl]-piperazin-1-yl-methanone] | 25.1 to 158 nM
